Several values for one entry are separate records, joined by “and”; a condition that tells them apart may be missing. Equal entries are not always repeated. Toxic doses and inconclusive results are not listed. Rule as the data show it: active = T/C of 150% or more; inactive = T/C below 125%.
System: L1210 leukemia ip in BDF1 mice, survival T/C
Experiment: NCI In Vivo Anticancer Drug Screen. Data for tumor model L1210 Leukemia (intraperitoneal) in B6D2F1 (BDF1) mice
Conditions: endpoint: mean survival time, higher = longer survival
Outline: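 Survival endpoint. Drug-treated group vs vehicle group, expressed as T divided by C. Tumor passaged by transplantation.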

[1] = dose: 100.0 mg/kg/injection, schedule: Q04DX002 (ip), vehicle: Klucel (hydroxypropylcellulose) (HPC)
[2] = dose: 200.0 mg/kg/injection, schedule: Q04DX002 (ip), vehicle: Klucel (hydroxypropylcellulose) (HPC)
[3] = dose: 400.0 mg/kg/injection, schedule: Q04DX002 (ip), vehicle: Klucel (hydroxypropylcellulose) (HPC)
[4] = dose: 100.0 mg/kg/injection, schedule: Q01DX001 (ip), vehicle: saline with Tween-80
[5] = dose: 200.0 mg/kg/injection, schedule: Q01DX001 (ip), vehicle: saline with Tween-80
[6] = dose: 400.0 mg/kg/injection, schedule: Q01DX001 (ip), vehicle: saline with Tween-80
[7] = dose: 100.0 mg/kg/injection, schedule: Q01DX001 (ip), vehicle: saline
[8] = dose: 200.0 mg/kg/injection, schedule: Q01DX001 (ip), vehicle: saline
[9] = dose: 400.0 mg/kg/injection, schedule: Q01DX001 (ip), vehicle: saline
[10] = dose: 50.0 mg/kg/injection, schedule: Q04DX002 (ip), vehicle: saline with Tween-80
[11] = dose: 100.0 mg/kg/injection, schedule: Q04DX002 (ip), vehicle: saline with Tween-80
[12] = dose: 100.0 mg/kg/injection, schedule: Q04DX003 (ip), vehicle: saline
[13] = dose: 200.0 mg/kg/injection, schedule: Q04DX003 (ip), vehicle: saline
[14] = dose: 100.0 mg/kg/injection, schedule: Q01DX009 (ip), vehicle: Klucel (hydroxypropylcellulose) (HPC)
[15] = dose: 50.0 mg/kg/injection, schedule: Q01DX001 (ip), vehicle: saline

Measured: T/C

COc1cccc(NC(=O)c2cccc([N+](=O)[O-])c2)c1
inactive: [1] 94 % of control | [2] 98 % of control | [3] 91 % of control

CC1(C)C2CCC1(C)C(NCc1cc(Cl)cc(Cl)c1O)C2 (stereo unspecified)
inactive: dose: 100.0 mg/kg/injection, schedule: Q04DX003 (ip), vehicle: Klucel (hydroxypropylcellulose) (HPC) 92 % of control | dose: 200.0 mg/kg/injection, schedule: Q04DX003 (ip), vehicle: Klucel (hydroxypropylcellulose) (HPC) 103 % of control | dose: 400.0 mg/kg/injection, schedule: Q04DX003 (ip), vehicle: Klucel (hydroxypropylcellulose) (HPC) 98 % of control

C[n+]1cccc(C(=O)N/N=C/CCc2ccccc2)c1
inactive: dose: 25.0 mg/kg/injection, schedule: Q04DX003 (ip), vehicle: saline with Tween-80 95 % of control | dose: 50.0 mg/kg/injection, schedule: Q01DX001 (ip), vehicle: saline with Tween-80 101 % of control | dose: 50.0 mg/kg/injection, schedule: Q01DX009 (ip), vehicle: saline with Tween-80 120 % of control | dose: 50.0 mg/kg/injection, schedule: Q04DX003 (ip), vehicle: saline with Tween-80 90 % of control | [4] 103 % of control | dose: 100.0 mg/kg/injection, schedule: Q01DX009 (ip), vehicle: saline with Tween-80 106 % of control | dose: 100.0 mg/kg/injection, schedule: Q04DX003 (ip), vehicle: saline with Tween-80 92 % of control | [5] 97 % of control | dose: 200.0 mg/kg/injection, schedule: Q01DX009 (ip), vehicle: saline with Tween-80 95 % of control | dose: 200.0 mg/kg/injection, schedule: Q04DX003 (ip), vehicle: saline with Tween-80 94 % of control | [6] 101 % of control

CC1(c2ccccc2)CC1(Br)Br (stereo unspecified)
inactive: dose: 100.0 mg/kg/injection, schedule: Q04DX002 (ip), vehicle: saline 95 % of control | dose: 200.0 mg/kg/injection, schedule: Q04DX002 (ip), vehicle: saline 95 % of control | dose: 400.0 mg/kg/injection, schedule: Q04DX002 (ip), vehicle: saline 100 % of control

O=C(Oc1cccc([N+](=O)[O-])c1)c1ccc([N+](=O)[O-])cc1O
inactive: [7] 95 % of control | [8] 95 % of control | [9] 97 % of control

Cc1c2ccc3ccccc3c2c[n+]2ccccc12
inactive: dose: 5.0 mg/kg/injection, schedule: Q01DX009 (ip), vehicle: saline sonified 102 % of control | dose: 7.0 mg/kg/injection, schedule: Q01DX009 (ip), vehicle: saline sonified 116 % of control and 120 % of control | dose: 10.7 mg/kg/injection, schedule: Q01DX009 (ip), vehicle: saline sonified 117 % of control | dose: 11.0 mg/kg/injection, schedule: Q01DX009 (ip), vehicle: saline sonified 120 % of control | dose: 15.0 mg/kg/injection, schedule: Q04DX003 (ip), vehicle: Klucel (hydroxypropylcellulose) (HPC) 108 % of control | dose: 21.0 mg/kg/injection, schedule: Q04DX003 (ip), vehicle: Klucel (hydroxypropylcellulose) (HPC) 107 % of control | dose: 24.0 mg/kg/injection, schedule: Q01DX009 (ip), vehicle: saline sonified 114 % of control | dose: 33.0 mg/kg/injection, schedule: Q04DX003 (ip), vehicle: Klucel (hydroxypropylcellulose) (HPC) 105 % of control | dose: 48.0 mg/kg/injection, schedule: Q04DX003 (ip), vehicle: Klucel (hydroxypropylcellulose) (HPC) 111 % of control

CC(C)(C)N1C=C(c2ccccc2)N=CC1(c1ccccc1)C(C)(C)C (stereo unspecified)
inactive: [10] 99 % of control | [1] 92 % of control | [11] 99 % of control | [2] 100 % of control | dose: 200.0 mg/kg/injection, schedule: Q04DX002 (ip), vehicle: saline with Tween-80 99 % of control | [3] 103 % of control

CCOP(=O)(OCC)N1C(C)C1c1ccccc1 (stereo unspecified)
inactive: dose: 25.0 mg/kg/injection, schedule: Q04DX003 (sc), vehicle: carboxymethylcellulose (CMC) 100 % of control | dose: 50.0 mg/kg/injection, schedule: Q04DX003 (sc), vehicle: carboxymethylcellulose (CMC) 104 % of control | dose: 100.0 mg/kg/injection, schedule: Q04DX003 (sc), vehicle: carboxymethylcellulose (CMC) 112 % of control

O=C(NCCCl)N(O)C12CC3CC(CC(C3)C1)C2
inactive: [4] 90 % of control | [5] 97 % of control | [6] 98 % of control

O=c1cc(COc2ccc(O)cc2)[nH]c(=O)[nH]1
inactive: [12] 101 % of control | [13] 104 % of control | dose: 400.0 mg/kg/injection, schedule: Q04DX003 (ip), vehicle: saline 89 % of control

CSc1ccccc1NC(=O)c1cccc([N+](=O)[O-])c1
inactive: [1] 105 % of control | [2] 99 % of control | [3] 86 % of control

O=C(/C=N\O)c1ccncc1
inactive: [14] 100 % of control | dose: 200.0 mg/kg/injection, schedule: Q01DX009 (ip), vehicle: Klucel (hydroxypropylcellulose) (HPC) 94 % of control

CCOC(=O)C(C)(C)[Si](C)(C)C
inactive: [15] 97 % of control | [7] 103 % of control | [8] 97 % of control | [9] 97 % of control

CCCOC(CN)C(Cl)(Cl)Cl (stereo unspecified)
inactive: dose: 50.0 mg/kg/injection, schedule: Q01DX009 (ip), vehicle: saline 98 % of control | dose: 100.0 mg/kg/injection, schedule: Q01DX009 (ip), vehicle: saline 96 % of control | [12] 97 % of control | dose: 200.0 mg/kg/injection, schedule: Q01DX009 (ip), vehicle: saline 96 % of control | [13] 92 % of control

Cc1cc(C)c(-n2c(C)nc3ccccc3c2=O)c([N+](=O)[O-])c1
inactive: dose: 12.5 mg/kg/injection, schedule: Q01DX009 (ip), vehicle: Klucel (hydroxypropylcellulose) (HPC) 96 % of control | dose: 25.0 mg/kg/injection, schedule: Q01DX009 (ip), vehicle: Klucel (hydroxypropylcellulose) (HPC) 104 % of control | dose: 50.0 mg/kg/injection, schedule: Q01DX009 (ip), vehicle: Klucel (hydroxypropylcellulose) (HPC) 89 % of control | [14] 109 % of control

O=c1[nH]nc(-c2ccccc2)c2ccccc12
inactive: [15] 100 % of control | [7] 97 % of control | [8] 93 % of control | [9] 100 % of control

CCCCOP(=O)(c1ccccc1)N1CCCCC1 (stereo unspecified)
inactive: dose: 25.0 mg/kg/injection, schedule: Q04DX002 (ip), vehicle: saline with Tween-80 103 % of control | [10] 103 % of control | [11] 92 % of control and 107 % of control

COc1cc(C(=O)N(C)OC)cc(OC)c1OC
inactive: dose: 100.0 mg/kg/injection, schedule: Q01DX001 (ip), vehicle: carboxymethylcellulose (CMC) 96 % of control | dose: 200.0 mg/kg/injection, schedule: Q01DX001 (ip), vehicle: carboxymethylcellulose (CMC) 91 % of control | dose: 400.0 mg/kg/injection, schedule: Q01DX001 (ip), vehicle: carboxymethylcellulose (CMC) 100 % of control

O=C(c1ccccc1)N(O)c1ccccc1
inactive: dose: 75.0 mg/kg/injection, schedule: Q01DX001 (ip), vehicle: saline 93 % of control | dose: 75.0 mg/kg/injection, schedule: Q01DX009 (ip), vehicle: saline 91 % of control | dose: 150.0 mg/kg/injection, schedule: Q01DX001 (ip), vehicle: saline 104 % of control | dose: 150.0 mg/kg/injection, schedule: Q01DX009 (ip), vehicle: saline 98 % of control | dose: 300.0 mg/kg/injection, schedule: Q01DX001 (ip), vehicle: saline 95 % of control | dose: 300.0 mg/kg/injection, schedule: Q01DX009 (ip), vehicle: saline 96 % of control

From PubChem BioAssay AID248 (DTP/NCI, 2004)
